Source: publication PMC6718478, “A Comprehensive Antimicrobial Activity Evaluation of the Recombinant Microcin J25 Against the Foodborne Pathogens Salmonella and E. coli O157:H7 by Using a Matrix of Conditions” (Frontiers in Microbiology, 2019)
Positions of bridges follow the written chain, without caps; N, C: chain ends. Residues, ends and D or L forms follow the SMILES beside them.

Columns and labels:
S. Pullorum CVCC1791 = test: Antimicrobial activity (killing) curves; type: cell-based, Salmonella Pullorum
Method: To further address the activity of recombinant MccJ25, antimicrobial activity curves and Live/Dead viability assay were performed. A single colony of S. Pullorum CVCC1791, S. Typhimurium ATCC14082, and E. coli O157:H7 was inoculated into 5 mL of LB. The culture was then incubated at 37°C with shaking at 200 rpm overnight. The following day, the culture was diluted 1:100 in fresh LB and again incubated at 37°C with shaking at 200 rpm. For antimicrobial activity, the bacteria were grown until they reached log phase. Approximately 5 × 10^4 CFU/mL bacteria were inoculated into 2 mL of LB containing different concentrations of the recombinant MccJ25 (0, 1 × MIC, 2 × MIC, and 4 × MIC). […] The plates were incubated at 37°C overnight to count colony. Colonies were counted to determine CFU/mL. The experiment was conducted with two replicates in three independent trials.

S. Pullorum [1] = test: SEM of cell membrane morphology; type: cell-based, Salmonella Pullorum; conditions: 1 or 4 × MIC for 1 h at 37°C; ~2 × 10^6 cells
Method: To assess the alteration of S. Pullorum cell membrane morphology and ultrastructure, SEM and TEM were performed as described previously, with minor modifications ([Wang et al., 2017]; [Meng et al., 2019]). For SEM sample preparation, approximately 2 × 10^6 S. Pullorum cells were incubated at 37°C for 1 h with the recombinant MccJ25 at 1× and 4 × MIC levels. The control was performed without the recombinant MccJ25. After incubation, the cells were harvested, mixed and centrifuged at 8,000 × g for 3 min. The bacterial pellets were washed three times in PBS and centrifuged at 3,000 × g for 10 min. The bacterial cells were resuspended in 500 μL of PBS and supplemented with 2.5% fresh glutaraldehyde at 4°C overnight. Thereafter, the bacterial pellets were postfixed in 1% osmium tetroxide, dehydrated, and coated with gold-palladium. They were observed by SEM (EVO MA10 XVP, Carl Zeiss).

S. Pullorum [2] = test: TEM of morphology and intracellular alteration; type: cell-based, Salmonella Pullorum
Method: For TEM sample preparation, (1) two milliliters of 2 × 10^6 cells of S. Pullorum broth cultured in the absence or presence of 1×, 2× and 4× MIC of the recombinant MccJ25 were incubated and collected at 1 h. (2) After that, approximately 2 × 10^6 S. Pullorum cells were incubated at 37°C for […] with the recombinant MccJ25 at 2 × MIC for 2, 3, and 4 h. They were then centrifuged at 5,000 × g for 5 min. Pretreatment of bacterial samples was conducted in the same way as the SEM treatment. Finally, the samples were placed in capsules containing embedding medium and heated at 70°C for approximately 9 h. Specimens were stained with uranyl acetate and alkaline lead citrate for 15 min. They were then observed by TEM (Model JEM-1230, JEOL, Japan).

IPEC-J2 cells = test: Salmonella invasion of IPEC-J2 cell monolayers; type: cell-based; conditions: 6 h with recombinant MccJ25, Salmonella for 2 h; plate counts, n = 9
Method: FIGURE S1 | Protective effects of recombinant MccJ25 against Salmonella invasion of IPEC-J2 cell monolayers. IPEC-J2 cells were cultured with or without recombinant MccJ25 for 6 h in the absence or presence of Salmonella for 2 h. The invasion of Salmonella in the IPEC-J2 cells was determined. Salmonella (mean CFU/ml ± SEMs) were determined by plate counts, and determined from three individual experiments. n = 9. Different superscript lowercase letters within each group indicate significant differences (P < 0.05).

In the case of `CC[C@H](C)[C@H](NC(=O)CNC(=O)[C@@H](NC(=O)[C@H](Cc1ccccc1)NC(=O)[C@H](Cc1ccc(O)cc1)NC(=O)[C@@H]1CCC(=O)NCC(=O)NCC(=O)N[C@@H](C)C(=O)NCC(=O)N[C@@H](Cc2c[nH]cn2)C(=O)N[C@@H](C(C)C)C(=O)N2CCC[C@H]2C(=O)N1)C(C)C)C(=O)NCC(=O)N[C@H](C(=O)N1CCC[C@H]1C(=O)N[C@H](C(=O)N[C@@H](CO)C(=O)N[C@@H](Cc1ccccc1)C(=O)N[C@@H](Cc1ccc(O)cc1)C(=O)NCC(=O)O)[C@@H](C)CC)[C@@H](C)O` [recombinant MccJ25, microcin J25] (GGAGHVPEYFVGIGTPISFYG-OH; lactam N-8 (inferred); C-terminus assumed), the “regrowth in killing curve” value (S. Pullorum CVCC1791; 1 × MIC, after 8 h of incubation) is reported as “did not exhibit regrowth”, the “incubation time after which all bacteria were killed (killing curve)” value (S. Pullorum CVCC1791; 1 × MIC, log phase, ~5 × 10^4 CFU/mL in LB, 37°C, plate counts, n = 6) is reported as 4 h and the “incubation time after which the pathogen was eliminated (killing curve)” value (S. Pullorum CVCC1791; 4 × MIC, log phase, ~5 × 10^4 CFU/mL in LB, 37°C, plate counts at 0, 2, 4, 6 h, n = 6) is reported as 6 h. The “cell membrane morphology by SEM” value (S. Pullorum [1]) was “minimal membrane roughening, enlargement, and some filiferous adhesions in a small amount of cells”, the “cytoplasmic membrane integrity by TEM” value (S. Pullorum [2]; 1, 2, or 4 × MIC for 1 h, 2 × 10^6 cells) was “significantly disrupted the membrane” and the “morphology and intracellular alteration by TEM” value (S. Pullorum [2]; 2 × MIC for 2, 3, and 4 h) was “deformed small septa, invisible cytoplasmic membranes, heterogeneous electron density, electron-light regions and thinned cell walls”. The “S. Pullorum invasion of IPEC-J2 cells” value (IPEC-J2 cells) was “inhibited S. Pullorum invasion”.
